The results in this text go back to US6080573A, “Enzymatic oxidation process” (Lever Brothers Company, Division of Conopco, Inc., priority 1996, dated 2000).

Test [1] in a line: Dye transfer prevention: washing a coloured swatch in the presence of a white pick-up swatch with peroxidase. More on the design: key to ΔE (colour difference): CIELAB colour difference ΔE vs control swatch without peptide; key to ΔL (whiteness): difference in CIELAB L* (lightness) vs control swatch. The note with it: for ΔE (colour difference) / ΔL (whiteness): pH 9, 30 minutes, 40° C., versus control swatch without peptide enhancer; for dye transfer prevention / effect on white swatch: result in words. As for the experimental part:
The potential of the enzymatic system to prevent dye transfer was assessed by washing a coloured swatch in the presence of a white pick-up swatch. The experiments were performed in 25 ml Phosphate buffer, pH 9, containing the two swatches of 5×5 cm. The experiments were performed using a partially purified peroxidase derived from an Hormographiella species. Experiments were performed in the presence of 12 ABTS units/ml. The fabrics were agitated in the wash solution (25 ml) for 30 minutes at 40° C. The fabrics were line dried and the reflectance spectra were measured using a Minolta spectrometer. The data thereby obtained was transferred to the CIELAB L*a*b* colour space parameters. In this colour space, L* indicates lightness and a* and b* are the chromaticity coordinates. The colour differences between the control swatch, without addition the peptide enhancer, and the swatches washed in the presence of different concentrations of peptide, were expressed as ΔE, calculated from the following equation: [formula]

The subject of test [2] is peroxidase. The test is described as follows: Peroxidase bleach enhancement: bleaching of Reactive Black 5. The test is classed as biochemical, Hormographiella species. The note with it: pH 9, 25° C.; for OD reading at 590 nm (Reactive Black 5): tyrosine 200 μM or peptide 100 μM. As for the experimental part:
(§1) Dye bleach experiments were performed using a partially purified peroxidase derived from an Hormographiella species. The enzyme was purified by ultrafiltration from the fermentation broth, followed by ion-exchange chromatography using Q-Sepharose (Pharmacia) at pH 7. Enzyme activity is expressed as ABTS (2,2'-azino-bis(3-ethylbenzothiazoline-6-sulphonic acid) units. One ABTS unit represents the amount of enzyme which oxidizes ABTS, resulting in an increase of 1 optical density at 418 nm. Conditions for the activity assay were 2 mM ABTS, 1 mM H2 O2, 20 mM Tris, pH 9.
(§2) Bleaching experiments were conducted at 25° C. in 20 mM Phosphate buffer, set at pH 9. Added peroxidase activity was 60 ABTS units per millilitre. The peptide GGSCGYHYQHCGQG (one letter amino acid code) was added as a peroxidase enhancer at a concentration of 100 μM. The Reactive Black 5 concentration was 30 μM, and the H2 O2 concentration was 250 μM.
(§3) Bleaching of Reactive Black 5 was monitored by the decrease in optical density at 590 nm. The enhancing activity of the peptide was compared to that of the free amino acid tyrosine. As the peptide contains 2 tyrosine residues, 200 μM of the amino acid was added, as a comparison to 100 μM of peptide.

Test [3] deals with peroxidase. Description: Peroxidase bleach enhancement: bleaching of red beet solution. The test is classed as biochemical, Hormographiella species. The note with it: conditions as in example 3. Here is the method:
as §1, §2, §3
In order to study the selectivity of the peptide enhanced reaction, the bleaching of a red beet solution with the system was assayed. The extract of red beet is, as with dyes, susceptible the action of peroxidase enhancers. […] Experimental conditions are as in example 3.

Test [4] can be described thus: ELISA: binding of alkaline phosphatase-Reactive Red 6 conjugate (AP-RR6) to peptide-coated plates. The note with it: plates coated with 1 mg/ml peptide, p-nitro-phenyl-phosphate, 30 minutes. Here is the method: The specific binding of peptide #1 (NH2-GGSCGYHYQHCGQG-COOH) to the dye Reactive Red 6 was measured (the peptide contains one disuphide bridge through the cysteine residues, sequence of the peptides is given in one letter amino acid codes).
(§4) For the detection of binding, the enzyme Alkaline Phosphatase (AP, 2.5 mg/ml) was conjugated with the reactive dye Reactive Red 6 (RR6, 1.25 mM), by incubation of the enzyme with the dye during 2 hours, at room temperature in Borate buffer, 0.1 M, 0.15 M NaCl, pH 8.5. The dye thereby becomes covalently linked to the amino groups of the enzyme by its triazine unit. Free dye was separated from the enzyme conjugate by gel filtration (PD-10 column, Pharmacia). Elisa plates (Polysorb, Nunc) were coated overnight with 100 μl of a 1 mg/ml peptide solution in Phosphate buffer, 150 mM NaCl, pH 7.4 (PBS). The peptide coated ELISA plates were blocked with 2% Bovine Serum Albumin (BSA) in PBS for 1 hour, room temperature. The Alkaline Phosphatase--RR6 conjugate (AP-RR6) was then incubated for 1 hour, room temperature, in incubation buffer (0.2 M Tris, 20 mM NaCl, 1% PEG 6000, 5% BSA). The plates were washed plates 3 times with wash buffer (0.2 M Tris, 60 mM Citrate, 0.1 M NaCl, 0.05% Tween) and 3 times with demineralized water. Bound Alkaline Phosphatase (AP) was then detected by incubation with the substrate p-nitro-phenyl-phosphate. […] As a control, Alkaline Phosphatase, not conjugated to the dye, was used.
For orientation: ELISA stands for enzyme-linked immunosorbent assay.

In another test the test system is Alkaline Phosphatase. Description: ELISA control: binding of unconjugated Alkaline Phosphatase (AP) to peptide-coated plates. Conditions: control: Alkaline Phosphatase not conjugated to the dye; plates coated with 1 mg/ml peptide; 30 minutes. As for the experimental part: as §4

Consider `N[C@@H](Cc1ccc(O)cc1)C(=O)O` [tyrosine], for which the “ΔE (colour difference)” value in test [1] (25 μM) was found to be 0.55; in test [1] (50 μM) it was 0.63; in test [1] (100 μM) it was 2.05. Moreover, the figures for the “ΔL (whiteness)” value in test [1] (25 μM), in test [1] (50 μM) and in test [1] (100 μM) were -0.5, -0.6 and -2.0, respectively. The “dye transfer prevention / effect on white swatch” value in test [1] was “darkening of the white swatch (negative ΔL)”. Further, the “OD reading at 590 nm (Reactive Black 5)” value in the test with peroxidase [2] (0 minutes after incubation) worked out at 0.651; with peroxidase [2] (2 minutes after incubation), 0.606; in the test on peroxidase [2] (4 minutes after incubation), 0.580; in the test with peroxidase [2] (6 minutes after incubation) it was 0.559; in the test with peroxidase [2] (8 minutes after incubation), 0.540; in the test with peroxidase [2] (10 minutes after incubation) it was 0.523. Moreover, the figures for the “OD reading at 590 nm (Reactive Black 5)” value in the test on peroxidase [2] (12 minutes after incubation) and in the test on peroxidase [2] (14 minutes after incubation) were 0.507 and 0.494, respectively. For the same compound, the “bleaching of red beet solution (optical density)” value (from here on “bleaching of red beet solution”) with peroxidase [3] (0 minutes after incubation) was 1.082; in the test with peroxidase [3] (2 minutes after incubation) it was 1.076; with peroxidase [3] (4 minutes after incubation), 1.06; in the test with peroxidase [3] (6 minutes after incubation), 1.022; with peroxidase [3] (8 minutes after incubation), 0.906; in the test on peroxidase [3] (10 minutes after incubation), 0.739. For the same compound, the “bleaching of red beet solution” value is 0.591 in the test on peroxidase [3] (12 minutes after incubation) and 0.488 in the test with peroxidase [3] (14 minutes after incubation).

Regarding Arg-Arg [Arg--Arg], the “OD 450 nm values, AP-RR6” value in test [4] was 0.09. Besides, the “OD 450 nm values, AP” value in the test on Alkaline Phosphatase was determined as 0.003.

With Lys-Lys-Lys [Lys--Lys--Lys], the “OD 450 nm values, AP-RR6” value in test [4] was 0.31. Besides, the “OD 450 nm values, AP” value in the test on Alkaline Phosphatase is reported as 0.023.

In the case of “NH2-GGSCGYHYQHCGQG-COOH (H-GGSCGYHYQHCGQG-OH; cysteine pairing not given here) [Peptide #1]”, the “ΔE (colour difference)” value in test [1] (25 μM) is reported as 2.46; in test [1] (50 μM), 2.85; in test [1] (100 μM) it was 3.62. Besides, the “ΔL (whiteness)” value in test [1] (25 μM) is recorded as 2.40; in test [1] (50 μM) it was 2.80; in test [1] (100 μM), 3.50. For the same compound, the “dye transfer prevention / effect on white swatch” value in test [1] is “clear dye transfer prevention benefit, resulting in a lighter white swatch”. In addition, the “OD 450 nm values, AP-RR6” value in test [4] is 2.36. Moreover, the “OD reading at 590 nm (Reactive Black 5)” value in the test with peroxidase [2] (0 minutes after incubation) was found to be 0.651; in the test with peroxidase [2] (2 minutes after incubation) it was 0.430; with peroxidase [2] (4 minutes after incubation), 0.344; in the test on peroxidase [2] (6 minutes after incubation), 0.294; in the test with peroxidase [2] (8 minutes after incubation), 0.263; in the test on peroxidase [2] (10 minutes after incubation) it was 0.241. For the same compound, the “OD reading at 590 nm (Reactive Black 5)” value was determined as 0.227 in the test with peroxidase [2] (12 minutes after incubation) and 0.216 with peroxidase [2] (14 minutes after incubation). In addition, the “bleaching activity of the peroxidase in the presence of the peptide” value with peroxidase [2] (result in words) is “enhanced bleaching activity”. The “bleaching of red beet solution” value in the test on peroxidase [3] (0 minutes after incubation) is reported as 1.091; in the test with peroxidase [3] (2 minutes after incubation) it was 1.083; in the test on peroxidase [3] (4 minutes after incubation), 1.063; in the test on peroxidase [3] (6 minutes after incubation), 1.016; with peroxidase [3] (8 minutes after incubation), 0.881; with peroxidase [3] (10 minutes after incubation), 0.709. The “bleaching of red beet solution” value in the test on peroxidase [3] (12 minutes after incubation) is given as 0.567; with peroxidase [3] (14 minutes after incubation), 0.477. In the test with peroxidase [3] (result in words), the “reaction enhancement over tyrosine, red beet solution” value is recorded as “there is not reaction enhancement of the peptide over tyrosine”. Besides, the “OD 450 nm values, AP” value in the test on Alkaline Phosphatase stood at 0.047.

For the compound “Val-Gly-Ser-Glu (VGSE; printed: Val-Gly-Ser-Glu) [V--G--S--E]”, in test [4], the “OD 450 nm values, AP-RR6” value was found to be 0.03. Besides, in the test with Alkaline Phosphatase, the “OD 450 nm values, AP” value was 0.003.
